Here are results for 64 compounds from a melting point compilation (Tetko et al.; mined from patent text by program, amines drawn as free bases though some values may be those of a salt).

As usually defined, the melting point is the temperature, or range, at which the solid turns liquid. In turn, `Cc1c(C(=O)O)cnn1-c1nc(-c2ccc(Cl)c(Cl)c2)cs1` had a melting point of 278 to 279 °C.
As for `CON=C(C#CCCl)C(=O)OC`, the figure is 64 to 67 °C; as for `Clc1cc(-c2ccccc2)nc2nn(-c3ccccc3)cc12`, 175 to 177 °C.
With `CNc1ccc(CCc2cc(OC)ccc2OC)cc1C(=O)OC` the figure was 73 °C; with `CON(C)C(=O)c1ccc(-c2ccc(CN(C)C)cc2)cc1`, 42 to 43 °C.
Consider `CC(=O)OC1Cc2ccc(N)cc2C1` (centres undefined), for which the melting point was in the range of 237 to 239 °C.
The compound `CC(C)C(=O)NCC(=O)c1ccco1` came in with a melting point of 78 to 80 °C.
Regarding `CCc1c2s[nH]c(=O)c2c(=O)n2ccc(Cl)cc12`, the melting point was in the range of 222 to 223 °C.
The compound `Oc1ccc2c(c1O)OCC(c1cccc(Cl)c1)C2` (centres undefined) gave a melting point of 99 to 101 °C.
With `CCc1c(C)c(NC(=O)CC(C)(C)C)c(C)c2c1S(=O)CC2c1ccc(C(C)C)cc1` (centres undefined) the figure was 195 to 196 °C.
`CCOc1cc2c(c3c1[nH]c1ccc(O)cc13)C(=O)N(CCN(C)C)C2=O` displayed a melting point of 260 to 261 °C.
`COc1cc(C(=O)N2CCC(CCN3CCC(C(=O)c4nc5ccccc5n4Cc4ccccn4)CC3)(c3ccc(Cl)c(Cl)c3)C2)cc(OC)c1OC` (centres undefined) registered a melting point of 110 to 115 °C.
As for `COC(=O)c1ccc(C(O)c2cc3cc(C(F)(F)F)ccc3n2S(=O)(=O)c2cccc(C(C)(C)C)c2)cc1` (racemic), the figure is 60 °C.
As for `CCCCn1c(=O)c(C(=O)OCC)c(N2CCN(C(=O)c3cccs3)CC2)c2cccnc21`, the figure is 90 to 96 °C; as for `COc1cc(C2=C(C(C)(C)C)C(C)(C)CO2)cc(OC)c1Br`, 139 to 140 °C; as for `Cc1cc2nc(Cl)nc(Cl)c2s1`, 152 to 153 °C.
With `CCCCCc1c(/C=C/C(=O)Oc2ccc([N+](=O)[O-])cc2)oc2cc(OC)ccc12` the figure was 120 to 122 °C.
As to `COc1ccc(-n2c(SC)nc3cc(OC)cc(OC)c3c2=O)cc1`, the melting point is 212 to 215 °C.
In the case of `CCOCc1cc(CCCOc2c(C)cc(-c3noc(C(F)(F)F)n3)cc2C)on1`, the melting point fell in the range of 24 to 25 °C.
With `Cc1ccc(NC(=O)c2ccc(C(=O)Nc3ccccc3N)cc2)cc1Nc1nc(-c2cccnc2)cs1` the figure was 147 °C; with `Cn1nnnc1SCCCC(=O)c1ccc2ccccc2c1`, 118 to 120 °C.
As for `Cc1cc2occc2cn1`, the figure is 55 to 56 °C; as for `CC(C)OCc1cc(O)cc2cc(-c3ccc(O)cc3)oc12`, 195 to 197 °C.
With `CC(C)(C)OC(=O)Nc1sc(Cl)nc1Cl` the figure was 111 to 112 °C; with `CCOC(=O)COn1c2c([nH]c(=O)c1=O)CCC1=C2C=C(n2c(C)ccc2C)CC1`, 157 to 158 °C.
In turn, `CC(=O)Oc1ccc(-c2ccc(CO)cc2S(=O)CC[Si](C)(C)C)cc1C` (centres undefined) came in with a melting point of 132 to 134 °C.
As for `CCCOc1ccc(S(=O)(=O)Cl)cc1C(=O)O`, the melting point lay in the range of 121 to 124 °C.
As for `CCc1c(C)[nH]c(=O)c(I)c1Oc1cc(I)cc(CC#N)c1`, the figure is 220 °C; as for `CC[C@H](C)[C@H](NC(=O)NCCC1CCCCC1)C(=O)N[C@H](CO)Cc1c[nH]c2ccccc12`, 182 to 184 °C; as for `O=C1C2=NCCCN2c2cc(Cl)c([N+](=O)[O-])cc21`, 152 to 165 °C.
As for `COC(=O)C(=O)c1ccc(OCCOC2CCc3ccccc3C2)cc1` (centres undefined), the figure is 86 to 87 °C.
As for `CN(Cc1cc2c3c(c1)c(=O)c(C(=O)NCc1ccc(F)cc1)cn3CC(=O)N2C)C[C@@H](O)c1ccsc1`, the figure is 150 to 152 °C; as for `CC1(C)CCC(C)(C)c2cc(CC#Cc3ccc(C(=O)O)c(O)c3)ccc21`, 178 to 180 °C.
For the compound `O=C(CCc1ccc(Cl)cc1)N1CCC(CCO)CC1`, the melting point was in the range of 88 to 90 °C.
As for `CC(=O)c1c(C)c(NC(=O)CC(C)(C)C)c(C)c2c1S(=O)(=O)CC2c1ccc(C(C)C)cc1` (centres undefined), the figure is 184 to 186 °C; as for `O=C(O)Cn1c(=O)sc2cc(Br)c(Cl)cc21`, 249 to 252 °C.
As for `Cc1c(CC(=O)N(C)C)oc2ccc(F)cc12`, the figure is 88 to 90 °C; as for `COc1ccc(-c2nc(Sc3ccc(C(C)(C)C)cc3)[nH]c2-c2ccc(OC)cc2)cc1`, 172 to 174 °C; as for `CC(=O)Oc1ccc(C=Cc2cc(OC(C)=O)cc(OC(C)=O)c2)cc1`, 112 to 113 °C.
With `COC1C(O)C=C(C)C(OC(=O)c2ccccc2)CC1(C)C` (centres undefined) the figure was 82.5 to 83.5 °C; with `CCc1ccc2c(c1)NC(=O)C2=O`, 128 to 136 °C.
Regarding `CCCCCCCNC(=O)Nc1ccccc1C(=O)NCCn1cnc(-c2ccccc2)c1-c1ccccc1`, the melting point was found to be 170 °C.
`COc1ccc(OCCCCl)c(C2(SC)Sc3ccccc3N(C)C2=O)c1` (centres undefined): the melting point lay in the range of 135 to 137 °C.
With `CC(C)CCC(=O)N1CCN(C(=O)OC(C)(C)C)CC1` the figure was 88 to 90.2 °C; with `N#CC(=Cc1cc2cccnc2n(-c2cc(Cl)cc(Cl)c2)c1=O)c1ccccn1`, 319 °C; with `Cc1cccc(C(=O)O)c1N(C)S(=O)(=O)c1ccc(OCCCNC(=O)c2cc3ccccc3o2)cc1`, 184 to 186 °C.
`Cn1cc(-c2cccc(N3Cc4cc(C(C)(C)C)ccc4C3=O)c2CO)nc(Nc2cccnc2)c1=O` showed a melting point of 149 to 150 °C.
As for `O=C(O)c1ccc(Cl)c2c1OC(F)(F)O2`, the figure is 185 °C; as for `COC(=O)Cc1coc2c(O)cccc12`, 58 to 59 °C; as for `CCOC(=O)c1nc(NCC(c2ccccc2)c2ccccc2)c2ncn(C3CCCCO3)c2n1` (centres undefined), 138 to 140 °C.
As to `COc1ccc(Cn2c(=O)c3cnc(Nc4ccc(N5CCN(C)CC5)cc4)nc3n(C(C)C)c2=O)cc1`, the melting point was 215 to 216 °C.
As for `CS(=O)(=O)Nc1ccc(OCCCI)cc1`, the figure is 109 to 111 °C.
As for `O=C(O)c1c(OCc2ccccc2)c2ccccc2n1-c1ccccc1`, the figure is 140 to 142 °C; as for `CC(C)(C)n1nnc(NC(=O)C(c2ccccc2)c2ccccc2)n1`, 191 to 192 °C; as for `CCCCCCCCCCCCCCCCS(=O)(=O)Nc1cccc2ccc(O)cc12`, 104 to 107 °C.
As for `CCOC(=O)c1noc(C(Cc2ccccc2)NC(=O)OC(C)(C)C)n1` (centres undefined), the melting point is 72 to 76 °C.
`COC(=O)C(CC1CCCC1)c1ccc(I)cc1` (centres undefined) displayed a melting point of 51 to 54 °C.
As for `CS(=O)(=O)O[C@H]1C[C@@H](C(=O)OCc2ccccc2)N(S(C)(=O)=O)C1`, the figure is 91 to 92 °C; as for `O=C(O)c1cc(-c2ccncn2)c[nH]c1=O`, greater than 250 °C; as for `Cc1c(-c2ncc(Cl)cc2F)nn(C)c1C(=O)O`, 194 to 196 °C.
Consider `N[C@@H](CO)[C@@H](O)[C@H](O)[C@H](O)CO`, for which the melting point fell in the range of 129 to 130 °C.
On to `COC(=O)c1cnn(OCCCC2OCCO2)c1`, for which the melting point is 40 to 42 °C.
As for `Oc1nc2cc(Cl)c3nc(C(F)(F)F)[nH]c3c2nc1O`, the figure is greater than 300 °C.
The compound `O=C(O)C1=COCC(C(=O)O)=C1` displayed a melting point of 87 to 90 °C.
